The text below walks through data of patent publication US11059795B2, “Androgen receptor modulators and methods for their use” (ESSA Pharma, Inc., priority 2018, dated 2021).

For data set [1], the target named is T1, LBD of estrogen receptor-α (ERα) fused to DBD of GAL4 (Homo sapiens, UniProt P03372).
T1 sequence (P03372 311-547 limits assumed): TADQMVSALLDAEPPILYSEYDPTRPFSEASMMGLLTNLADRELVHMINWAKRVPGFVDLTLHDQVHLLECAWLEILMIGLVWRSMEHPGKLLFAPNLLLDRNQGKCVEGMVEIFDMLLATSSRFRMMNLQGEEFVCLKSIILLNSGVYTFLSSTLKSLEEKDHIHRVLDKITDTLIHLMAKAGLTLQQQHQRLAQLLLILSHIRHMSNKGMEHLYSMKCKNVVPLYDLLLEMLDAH
The experiment in a line: LBD-expressing reporter assay (GeneBLAzer), ERα LBD. The class given is cell-based. The conditions noted are these: inhibition of maximal activity attained with agonist; read-out: Steroid Receptor LBD IC50 (μM) ERα. The source says: (§1) This assay uses cells that stably express a chimera fusion protein comprising the LBD of a steroid hormone receptor fused to the DNA-binding domain (DBD) of GAL4 along with beta-lactamase reporter under transcriptional control of an upstream activator sequence (UAS). When agonist binds to the LBD of the GAL4 (DBD)-steroid hormone (LBD) chimera fusion protein, the protein binds to the UAS, resulting in expression of beta-lactamase. LBDs of androgen receptor (AR), progesterone receptor-beta (PRβ), glucocorticoid receptor (GR), estrogen receptor-α (ERα), and estrogen receptor-β (ERβ) were tested and IC50s calculated for inhibiting maximal activity attained with agonist.

The target in data set [2] is LBD of estrogen receptor-β (ERβ) fused to DBD of GAL4 (Homo sapiens, UniProt Q92731). The experiment in a line: LBD-expressing reporter assay (GeneBLAzer), ERβ LBD. The class given is cell-based. The conditions noted are these: inhibition of maximal activity attained with agonist; read-out: Steroid Receptor LBD IC50 (μM) ERβ.
Excerpt: as §1, with “To assess if the representative compounds (Compounds A13, A28, A38, A74, A93, and A109) compete with ligand (agonist) for the ligand-binding domain (LBD) of steroid hormone receptors (which would be off-target), the GeneBLAzer assay was employed (Thermo Fisher). This” for “This”
On the technique in general: A reporter such as luciferase makes a cellular process visible.

In a further data set the test system is LNCaP cells. The experiment in a line: Cell proliferation/viability assay, LNCaP (Alamar blue). The class given is cell-based. The conditions noted are these: Homo sapiens, AR specific proliferation with 0.1 nM R1881, read-out: Cellular Proliferation/Viability IC50 (μM) LNCaP. Here is the method:
(§2) Cell proliferation/viability was measured in LNCaP and PC3 cells with Alamar blue, and proliferation was measured in LN-CaP95 cells with BrdU incorporation. In LNCaP cells, AR specific proliferation is calculated by measuring the difference between control cells treated with or without 0.1 nM R1881.

In a further data set the test system is LNCaP tumors. The experiment in a line: LNCaP xenografts model in castrated male NCG mice. The class given is in vivo. The note with it: Table 4; extrapolated Cmin in efficacy. Here is the method: Tumor growth was measured in male NCG mice bearing LNCaP tumors. Castration was performed when tumors reached ˜100 mm^3 and dosing (60 mg/kg PO qd) started 1 week after castration. […] Individual tumor volume change from baseline measured at the end of the experiment.

For a further data set, the system named is PC3 cells. The experiment in a line: Cell proliferation/viability assay, PC3 (Alamar blue). The note with it: Homo sapiens; PC-3, Alamar blue; read-out: Cellular Proliferation/Viability IC50 (μM) PC-3. The class given is cell-based. Here is the method:
as §2
(In general: Alamar Blue is a resazurin reagent that responds to reducing activity.)

The next data set relates to LN-CaP95 cells. The experiment in a line: Cell proliferation assay, LNCaP95 (BrdU incorporation). The class given is cell-based. The conditions noted are these: LNCaP-95, read-out: Cellular Proliferation/Viability IC50 (μM) LNCaP95. Here is the method: as §2
On the technique in general: Uptake of a labelled nucleoside into DNA is a usual measure of proliferation.

Chain of LBD of estrogen receptor-β (ERβ) fused to DBD of GAL4 (Q92731 264-498 limits assumed): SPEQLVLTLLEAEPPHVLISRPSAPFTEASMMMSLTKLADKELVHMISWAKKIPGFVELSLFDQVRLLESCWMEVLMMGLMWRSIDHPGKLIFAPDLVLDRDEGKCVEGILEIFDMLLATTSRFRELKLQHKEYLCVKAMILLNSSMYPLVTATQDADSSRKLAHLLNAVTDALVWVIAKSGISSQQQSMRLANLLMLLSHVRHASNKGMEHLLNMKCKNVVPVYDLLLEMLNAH

With `CC(C)(c1ccc(OCc2coc(NS(C)(=O)=O)n2)cc1)c1cc(Cl)c(OCCCl)c(Cl)c1` [Compound A38, N-(4-((4-(2-(3,5-dichloro-4-(2-chloroethoxy)phenyl)propan-2-yl)phenoxy)methyl)oxazol-2-yl)methanesulfonamide], the IC50 in data set [1] and in data set [2] was over 10 µM throughout.

Consider `CC(C)(c1ccc(OCc2ccnc(NS(C)(=O)=O)n2)cc1)c1cc(Cl)c(OCCCl)c(Cl)c1` [Compound A74, N-(4-((4-(2-(3,5-dichloro-4-(2-chloroethoxy)phenyl)propan-2-yl)phenoxy)methyl)pyrimidin-2-yl)methanesulfonamide], for which the IC50 is 1.16 µM with LNCaP cells; over 10 µM in data set [1]; over 10 µM in data set [2]; over 10 µM in the data set on PC3 cells; 2.65 µM in the data set on LN-CaP95 cells. For the same molecule, the “Cmin at 5 mg/kg PO” value in the data set on LNCaP tumors is 29.1 µM.

With `CC(C)(c1ccc(OC[C@H](O)CNS(C)(=O)=O)cc1)c1cc(Cl)c(OC[C@H](O)CCl)c(Cl)c1` [X, reference compound], the IC50 with LNCaP cells was 3 µM; in data set [1], 5.82 µM; in data set [2] it was 7.37 µM; in the data set on PC3 cells, over 10 µM; in the data set with LN-CaP95 cells, 4 µM.

Consider `CC(C)(c1ccc(OCc2ocnc2S(C)(=O)=O)cc1)c1cc(Cl)c(OCCCl)c(C#N)c1` [Compound A28, 3-chloro-2-(2-chloroethoxy)-5-(2-(4-((4-(methylsulfonyl)oxazol-5-yl)methoxy)phenyl)propan-2-yl)benzonitrile], for which the IC50 was 0.68 µM with LNCaP cells; over 10 µM in data set [1]; over 10 µM in data set [2]; over 10 µM in the data set with PC3 cells; 6.43 µM in the data set with LN-CaP95 cells.

Take `CC(C)(c1ccc(OCc2ccnc(NS(C)(=O)=O)n2)cc1)c1cc(Cl)c(OCCCl)c(C#N)c1` [Compound A109, N-(4-((4-(2-(3-chloro-4-(2-chloroethoxy)-5-cyanophenyl)propan-2-yl)phenoxy)methyl)pyrimidin-2-yl)methanesulfonamide]: the IC50 with LNCaP cells was 0.44 µM; in data set [1], over 10 µM; in data set [2] it was over 10 µM; in the data set on PC3 cells, over 10 µM; in the data set with LN-CaP95 cells, 3.78 µM. Besides, the “Cmin at 5 mg/kg PO” value with LNCaP tumors is 8.18 µM.

Regarding `CC(C)(c1ccc(OCc2ncc(S(C)(=O)=O)s2)cc1)c1cc(Cl)c(OCCCl)c(C#N)c1` [Compound A93, 3-chloro-2-(2-chloroethoxy)-5-(2-(4-((5-(methylsulfonyl)thiazol-2-yl)methoxy)phenyl)propan-2-yl)benzonitrile], the IC50 in data set [1] and in data set [2] was over 10 µM throughout.

On to `CC(C)(c1ccc(OCc2ocnc2S(C)(=O)=O)cc1)c1cc(Cl)c(OCCCl)c(Cl)c1` [Compound A13, 5-((4-(2-(3,5-dichloro-4-(2-chloroethoxy)phenyl)propan-2-yl)phenoxy)methyl)-4-(methylsulfonyl)oxazole], for which the IC50 with LNCaP cells was 0.85 µM; in data set [1], over 10 µM; in data set [2], over 10 µM; with PC3 cells, over 10 µM; in the data set with LN-CaP95 cells it was 4 µM. In the data set on LNCaP tumors, the “Cmin at 5 mg/kg PO” value was 2.78 µM.
